These results are taken from paper PMC9963398, “Discovery of New Quinolone-Based Diarylamides as Potent B-RAF^V600E/C-RAF Kinase Inhibitors Endowed with Promising In Vitro Anticancer Activity” (International Journal of Molecular Sciences, 2023).

In one experiment the target is C-RAF (Homo sapiens, UniProt P04049). Nature of the experiment: HotSpot kinase assay (RBC), C-RAF. As to conditions: for IC50: IC50 C-RAF, 10 µM ATP, 10-dose singlicate IC50 mode.
A further experiment has as its system HT29. Briefly: NCI-60 five-dose SRB assay. The class given is cell-based. As to conditions: Homo sapiens, HT-29; HT29, Colon cancer, five-dose test. An outline of the steps:
(§1)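 SRB, NCI-60 human cancer panel, standard protocol, performed at NCI.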
Background: Sulforhodamine B stains cellular protein and so reports cell mass.

For a further experiment, the system named is LOX IMVI. Briefly: NCI-60 five-dose SRB assay. Type of experiment: cell-based. As to conditions: Homo sapiens, Melanoma, five-dose test. The method, boiled down:
as §1

The next experiment deals with HL-60(TB). Briefly: NCI-60 five-dose SRB assay. Type of experiment: cell-based. As to conditions: Homo sapiens, Leukemia, five-dose test. An outline of the steps: as §1
The subject of the next experiment is CAKI-1. Nature of the experiment: NCI-60 five-dose SRB assay. Type of experiment: cell-based. Conditions: Homo sapiens; CAKI-1, Renal cancer, five-dose test. The method, boiled down: as §1
In another experiment the test system is SNB-19. Nature of the experiment: NCI-60 five-dose SRB assay. The class given is cell-based. Conditions: Homo sapiens; SNB-19, CNS cancer, five-dose test. An outline of the steps:
as §1

Another experiment relates to HOP-92. Nature of the experiment: NCI-60 five-dose SRB assay. Type of experiment: cell-based. Conditions: Homo sapiens; HOP-92, NSCL cancer, five-dose test. The method, boiled down:
as §1

The test system of a further experiment is UO-31. Briefly: NCI-60 five-dose SRB assay. Conditions: Homo sapiens; UO-31, Renal cancer, five-dose test. Type of experiment: cell-based. An outline of the steps: as §1
A further experiment concerns M14. Nature of the experiment: NCI-60 five-dose SRB assay. Type of experiment: cell-based. Conditions: Homo sapiens; M14, Melanoma, five-dose test. The method, boiled down: as §1
In another experiment the test system is MOLT-4. Nature of the experiment: NCI-60 five-dose SRB assay. Type of experiment: cell-based. As to conditions: Homo sapiens; MOLT-4, Leukemia, five-dose test. An outline of the steps:
as §1

The next experiment concerns HS 578T. Nature of the experiment: NCI-60 five-dose SRB assay. The class given is cell-based. Conditions: Homo sapiens, Breast cancer, five-dose test. The method, boiled down:
as §1

The subject of the next experiment is SF-295. Briefly: NCI-60 five-dose SRB assay. Type of experiment: cell-based. As to conditions: Homo sapiens; SF-295, CNS cancer, five-dose test. An outline of the steps:
as §1

The next experiment deals with HCC-2998. Briefly: NCI-60 five-dose SRB assay. Type of experiment: cell-based. Conditions: Homo sapiens; HCC-2998, Colon cancer, five-dose test. An outline of the steps: as §1
The subject of another experiment is NCI-H322M. Briefly: NCI-60 five-dose SRB assay. Type of experiment: cell-based. Conditions: Homo sapiens, NSCL cancer, five-dose test. An outline of the steps:
as §1

The subject of another experiment is NCI/ADR-RES. Briefly: NCI-60 five-dose SRB assay. The class given is cell-based. As to conditions: Homo sapiens, Ovarian cancer, five-dose test. An outline of the steps:
as §1

The test system of the next experiment is TK-10. Nature of the experiment: NCI-60 five-dose SRB assay. Type of experiment: cell-based. Conditions: Homo sapiens; TK-10, Renal cancer, five-dose test. The method, boiled down: as §1
The subject of the next experiment is MDA-MB-435. Nature of the experiment: NCI-60 five-dose SRB assay. Conditions: Homo sapiens; MDA-MB-435, Melanoma, five-dose test. Type of experiment: cell-based. The method, boiled down: as §1
A further experiment has as its system U251. Nature of the experiment: NCI-60 five-dose SRB assay. Type of experiment: cell-based. As to conditions: Homo sapiens, U-251; U251, CNS cancer, five-dose test. The method, boiled down:
as §1

In another experiment the test system is SK-MEL-2. Nature of the experiment: NCI-60 five-dose SRB assay. The class given is cell-based. As to conditions: Homo sapiens; SK-MEL-2, Melanoma, five-dose test. The method, boiled down:
as §1

The next experiment has as its system SF-539. Nature of the experiment: NCI-60 five-dose SRB assay. Conditions: Homo sapiens; SF-539, CNS cancer, five-dose test. Type of experiment: cell-based. An outline of the steps:
as §1

Experiment [1] deals with NCI-60 human tumor cell lines. Briefly: NCI-60 five-dose testing, ranges over panel or subpanel. The class given is cell-based. Conditions: Homo sapiens, range over lines. As for the experimental part:
The anticancer screening of target compounds over a full panel of 60 human cancer cell lines was carried out using Sulforhodamine B (SRB) assay at the National Cancer Institute (NCI), Bethesda, Maryland, USA, employing the standard protocol.

Experiment [2] relates to NCI-60 human cancer cell lines. Briefly: NCI-60 single dose (10 µM) testing. Type of experiment: cell-based. Conditions: single dose 10 µM. The method, then:
Encouraged by the promising results in the cell-free assay, the antiproliferative activity of all final compounds was evaluated by the National Cancer Institute (NCI) in a single dose of 10 µM over a library of 60 human cancer cell lines representing nine cancer types; leukemia, non-small cell lung (NSCL), colon, central nervous system (CNS), melanoma, ovarian, renal, prostate, and breast cancer.

Chain of C-RAF (P04049 whole entry): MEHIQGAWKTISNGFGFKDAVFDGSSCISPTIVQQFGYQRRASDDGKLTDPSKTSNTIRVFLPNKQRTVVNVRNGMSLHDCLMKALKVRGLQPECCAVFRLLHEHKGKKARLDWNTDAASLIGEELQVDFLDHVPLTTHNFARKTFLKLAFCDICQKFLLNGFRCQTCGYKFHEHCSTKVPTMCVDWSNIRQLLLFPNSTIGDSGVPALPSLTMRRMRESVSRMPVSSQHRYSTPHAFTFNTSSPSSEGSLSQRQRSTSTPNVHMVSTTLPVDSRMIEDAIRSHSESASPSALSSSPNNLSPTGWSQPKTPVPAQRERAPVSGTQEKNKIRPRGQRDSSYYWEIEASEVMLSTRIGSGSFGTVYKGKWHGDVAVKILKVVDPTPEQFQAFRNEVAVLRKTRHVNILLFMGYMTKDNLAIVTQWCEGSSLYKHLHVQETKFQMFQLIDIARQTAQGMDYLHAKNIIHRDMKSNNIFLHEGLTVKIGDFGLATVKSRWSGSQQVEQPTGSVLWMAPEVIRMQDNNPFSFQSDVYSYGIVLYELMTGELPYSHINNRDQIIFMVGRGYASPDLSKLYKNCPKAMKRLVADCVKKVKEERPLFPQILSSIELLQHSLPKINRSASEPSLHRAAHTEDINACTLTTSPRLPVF
From the text for C-RAF: Reaction Biology Corporation (RBC) Kinase HotSpotSM service was utilized for cell-free biochemical kinase evaluation of the target compounds according to the reported assay protocol [46].

One may read the IC50 as the concentration that gives 50% inhibition. A low value points to greater potency. Usually GI50 stands for the concentration at which growth is held to half of that of the control. A lower GI50 goes with more potent growth inhibition. At C-RAF, `COc1cccc2nc(Nc3cccc(NC(=O)c4ccc(CN5CCN(C)CC5)c(C(F)(F)F)c4)c3)ccc12` [Compound 14a, 4-((4-methylpiperazin-1-yl)methyl)-N-(3-((5-methoxyquinolin-2-yl)amino)phenyl)-3-(trifluoromethyl)benzamide] showed an IC50 of 151 ± 2.35 nM. For the same compound, the GI50 with HT29 came out at 1860 nM; with LOX IMVI it was 1740 nM; in the experiment on HL-60(TB) it was 1220 nM; in the experiment with CAKI-1, 1810 nM; with SNB-19 it was 1780 nM; with HOP-92, 1500 nM. For the same compound, the GI50 in the experiment with UO-31 was 1640 nM; in the experiment on M14, 1760 nM; in the experiment with MOLT-4 it was 1450 nM; in the experiment with HS 578T, 1840 nM; with SF-295, 1770 nM; in the experiment on HCC-2998, 1990 nM. The GI50 in the experiment with NCI-H322M stood at 2290 nM; in the experiment on NCI/ADR-RES it was 2280 nM; in the experiment with TK-10, 2150 nM; with MDA-MB-435 it was 1680 nM; in the experiment on U251 it was 1920 nM; in the experiment on SK-MEL-2, 3520 nM. Halving of growth in the experiment with SF-539 (GI50) required 1640 nM.

The compound `COc1cccc2nc(Nc3cccc(NC(=O)c4ccc(CN5CCCN(C)CC5)c(C(F)(F)F)c4)c3)ccc12` [Compound 14b, N-(3-((5-methoxyquinolin-2-yl)amino)phenyl)-4-((4-methyl-1,4-diazepan-1-yl)methyl)-3-(trifluoromethyl)benzamide] had an IC50 against C-RAF of 192 ± 0.6 nM. The GI50 in the experiment on HT29 turned out to be 1660 nM; in the experiment on LOX IMVI, 1680 nM; in the experiment with HL-60(TB), 1650 nM; with CAKI-1, 1720 nM; in the experiment with SNB-19 it was 1720 nM; in the experiment with UO-31 it was 1740 nM. The GI50 came out at 1810 nM in the experiment on M14; 1240 nM in the experiment with MOLT-4; 2460 nM with HS 578T; 1740 nM in the experiment on SF-295; 1710 nM in the experiment on HCC-2998; 2120 nM with NCI-H322M. Besides, the GI50 in the experiment on NCI/ADR-RES stood at 1720 nM; in the experiment on TK-10, 4910 nM; with MDA-MB-435, 1800 nM; in the experiment with U251, 1760 nM; in the experiment on SK-MEL-2, 2150 nM; in the experiment with SF-539, 1550 nM.

With `CCN1CCN(Cc2ccc(C(=O)Nc3cccc(Nc4ccc5c(OC)cccc5n4)c3)cc2C(F)(F)F)CC1` [Compound 14c, 4-((4-ethylpiperazin-1-yl)methyl)-N-(3-((5-methoxyquinolin-2-yl)amino)phenyl)-3-(trifluoromethyl)benzamide], the IC50 against C-RAF stood at 182 ± 15.2 nM. In addition, the GI50 in the experiment with HT29 is 1760 nM; with LOX IMVI, 1450 nM; in the experiment with HL-60(TB) it was 1570 nM; in the experiment on CAKI-1, 1460 nM; with SNB-19, 1650 nM; with HOP-92 it was 1580 nM. The GI50 turned out to be 2330 nM in the experiment on UO-31; 1470 nM in the experiment on M14; 1230 nM in the experiment with MOLT-4; 1960 nM in the experiment with HS 578T; 1520 nM in the experiment with SF-295; 1590 nM in the experiment with HCC-2998. Further, the GI50 came out at 3500 nM in the experiment on NCI-H322M; 2280 nM with NCI/ADR-RES; 8670 nM in the experiment with TK-10; 1360 nM in the experiment with MDA-MB-435; 1690 nM in the experiment with U251; 10700 nM in the experiment on SK-MEL-2. For the same compound, halving of growth in the experiment on SF-539 (GI50) required 1370 nM.

Consider `COc1cccc2nc(Nc3ccc(F)c(NC(=O)c4ccc(CN5CCN(C)CC5)c(C(F)(F)F)c4)c3)ccc12` [Compound 15a, N-(2-fluoro-5-((5-methoxyquinolin-2-yl)amino)phenyl)-4-((4-methylpiperazin-1-yl)methyl)-3-(trifluoromethyl)benzamide], for which the GI50 in [1] (all cancer cell lines) is 3610 to 18800 nM; in experiment [1] (melanoma cell lines), 11700 to 16300 nM; in the experiment on HT29 it was 3610 nM; with LOX IMVI it was 13800 nM; in the experiment with HL-60(TB), 6520 nM; in the experiment with CAKI-1 it was 11500 nM. Also, the GI50 with SNB-19 was determined as 17200 nM; in the experiment with HOP-92 it was 6640 nM; in the experiment with UO-31, 12600 nM; with M14, 13100 nM; with MOLT-4, 4100 nM; in the experiment with HS 578T, 14100 nM. Also, the GI50 was found to be 17100 nM with SF-295; 18800 nM in the experiment on HCC-2998; 15200 nM with NCI-H322M; 16400 nM in the experiment with TK-10; 15100 nM with MDA-MB-435; 13400 nM with U251. Also, the results for the GI50 in the experiment with SK-MEL-2 and in the experiment on SF-539 were 16100 nM and 12400 nM, respectively. Further, 161 ± 1.57 nM corresponded to half-maximal inhibition against C-RAF (IC50).

`COc1ccc2nc(Nc3cccc(NC(=O)c4ccc(CN5CCN(C)CC5)c(C(F)(F)F)c4)c3)ccc2c1` [Compound 16a, N-(3-((6-methoxyquinolin-2-yl)amino)phenyl)-4-((4-methylpiperazin-1-yl)methyl)-3-(trifluoromethyl)benzamide] displayed an IC50 at C-RAF of 103 ± 2.65 nM. Besides, the “better kinase inhibition activity compared to 14a, C-RAF” value on C-RAF (ratio of IC50 versus 14a) amounted to 1.5 fold. Besides, the GI50 in the experiment on HT29 is 1320 nM; in the experiment on LOX IMVI it was 1550 nM; in the experiment with HL-60(TB), 5460 nM; with CAKI-1, 4900 nM; with SNB-19 it was 6140 nM; in the experiment with HOP-92, 1360 nM. Moreover, the GI50 was 5680 nM in the experiment with UO-31; 3630 nM in the experiment with M14; 1630 nM with MOLT-4; 4140 nM in the experiment with HS 578T; 3410 nM in the experiment on SF-295; 5250 nM with HCC-2998. Besides, the GI50 was found to be 6060 nM with NCI-H322M; 6520 nM in the experiment with TK-10; 5730 nM in the experiment on MDA-MB-435; 3770 nM in the experiment on U251; 5980 nM with SK-MEL-2; 2080 nM in the experiment on SF-539.

Consider `CN1CCCN(Cc2ccc(C(=O)Nc3cccc(Nc4ccc5cc(O)ccc5n4)c3)cc2C(F)(F)F)CC1` [Compound 18b, N-(3-((6-hydroxyquinolin-2-yl)amino)phenyl)-4-((4-methyl-1,4-diazepan-1-yl)methyl)-3-(trifluoromethyl)benzamide], for which the GI50 in [1] (NSCL cell lines) is 3390 to 17800 nM; in experiment [1] (colon cancer cell lines) it was 2090 to 18500 nM; in experiment [1] (melanoma cell lines), 10400 to 17200 nM; with HT29, 13300 nM; with LOX IMVI it was 12100 nM; in the experiment on HL-60(TB), 11900 nM. The GI50 worked out at 14100 nM in the experiment on CAKI-1; 17000 nM in the experiment with SNB-19; 10400 nM in the experiment on HOP-92; 15200 nM in the experiment with UO-31; 12700 nM in the experiment on M14; 2050 nM in the experiment with MOLT-4. The GI50 came to 14800 nM in the experiment on HS 578T; 17300 nM in the experiment on SF-295; 16500 nM in the experiment with HCC-2998; 16200 nM with NCI-H322M; 18500 nM in the experiment with TK-10; 10400 nM with MDA-MB-435. Further, the GI50 with U251 was 14800 nM; with SK-MEL-2, 17200 nM; with SF-539 it was 11300 nM. Moreover, in [2] (LOX IMVI), the “effect on cell growth” value is recorded as “lethal effect”. Also, in experiment [2] (melanoma SK-MEL-29, SK-MEL-5, and UACC-62), the growth percent result is “under −90%”. The compound further displayed an IC50 against C-RAF of 161 ± 30.1 nM.
